Patent US10287267B2, “Isoquinolin-3-yl carboxamides and preparation and use thereof” (Samumed, LLC, priority 2016, dated 2019)
Read-outs that look alike come from different tables or passages of the source.

Experiments:
[1] = tested on: Wnt pathway (Sp5-Luc reporter, TCF/LEF binding sites) in SW480 colon carcinoma cells; experiment: Screening assay for Wnt activity: Sp5-Luc reporter gene assay; format: cell-based, human; conditions: Homo sapiens; for EC50: Sp5-Luc reporter, SW480 cells, 36 to 48 hours; for inhibition at 10 µM: SW480, read-out: percent inhibition at 10 μM;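 for all read-outs here: firefly luciferase luminescence read in stably transduced SW480 cells carrying the Sp5 promoter reporter with eight TCF/LEF sites, compounds given in 0.1% DMSO final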
Procedure: The screening assay for Wnt activity is described as follows.
Following incubation, 15 μl of BriteLite Plus luminescence reagent (Perkin Elmer) was added to each well of the 384-well assay plates. The plates were placed on an orbital shaker for 2 min and then luminescence was quantified using the Envision (Perkin Elmer) plate reader.

[2] = molecular target: recombinant DYRK1A kinase (Homo sapiens (Human), UniProt Q13627); experiment: DYRK1A kinase assay (Ser/Thr 18 peptide Z-lyte FRET); format: biochemical; conditions: 30 μM ATP, 1 h room temperature;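 note: Read-out is the coumarin to fluorescein emission ratio, referenced to unphosphorylated (0%) and phosphorylated (100%) Ser/Thr 18 peptide controls, values from dose-response curves by non-linear regression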
recombinant GSK3β kinase = recombinant GSK3β kinase (Homo sapiens (Human), UniProt P49841); experiment: GSK3β kinase assay (Ser/Thr 09 peptide Z-lyte FRET); format: biochemical; conditions: 46 μM ATP, 1 h room temperature;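 note: kinase activity read as coumarin to fluorescein emission ratio, 11-point threefold dilutions from 10 µM to 0.0003 µM in duplicate, unphosphorylated and phosphorylated peptide as 0% and 100% controls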
Chain of recombinant GSK3β kinase (P49841 whole entry): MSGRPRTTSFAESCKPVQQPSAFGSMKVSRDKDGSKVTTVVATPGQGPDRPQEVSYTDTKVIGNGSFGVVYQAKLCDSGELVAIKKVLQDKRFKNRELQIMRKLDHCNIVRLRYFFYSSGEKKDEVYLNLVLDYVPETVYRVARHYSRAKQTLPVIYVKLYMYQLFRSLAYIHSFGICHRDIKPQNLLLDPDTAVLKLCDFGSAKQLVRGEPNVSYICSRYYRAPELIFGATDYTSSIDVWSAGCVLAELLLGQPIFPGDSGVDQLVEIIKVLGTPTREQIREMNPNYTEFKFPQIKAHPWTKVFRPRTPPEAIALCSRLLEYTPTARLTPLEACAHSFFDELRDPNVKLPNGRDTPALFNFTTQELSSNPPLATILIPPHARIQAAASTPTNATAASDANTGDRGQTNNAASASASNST

[3] = tested on: Tau phosphorylation at Ser396 (pSer396); experiment: Tau phosphorylation assay (pSer396 ELISA / western blot) in SH-SY5Y cells; format: cell-based, human;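 note: EC50 for reduction of Tau pSer396 in lysed cells, measured by colorimetric ELISA or chemiluminescent western blot, both using the same pSer396 antibody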
[4] = tested on: SW480 colon carcinoma cells; experiment: Cell viability assay (CellTiter-Glo); format: cell-based, human; conditions: Homo sapiens; for EC50: 96 h, SW480 cells, CellTiter-Glo, four days incubation; for inhibition at 10 µM: SW480, read-out: percent inhibition at 10 μM
IL-6 = IL-6 inhibition in LPS-stimulated human peripheral blood mononuclear cells (HTRF); format: cell-based; conditions: Homo sapiens, PBMC; for EC50: Table 9, huPBMCs, LPS 50 ng/mL, 22 hours, dose-response starting from 10 μM; for inhibition at 10 µM: read-out: percent value in parentheses beside EC50 >10 μM;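 for all read-outs here: IL-6 detected by HTRF with an XL665- and Cryptate-labelled anti-IL-6 antibody pair, samples run in duplicate, EC50 obtained from a four-parameter Levenberg-Marquardt curve fit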
Procedure: After 22 hour incubation, a mixture of anti-IL6 XL665 and anti-IL-6 Cryptate diluted in reconstitution buffer (Catalog #62IL6PEC, Cisbio Inc., Bedford, Mass.) was added to each well. […] All samples were processed in duplicate. […] EC50 was determined using software generated by Dotmatics Limited (Windhill Bishops Stortford Herts, UK) using the Levenberg-Marquardt 4 parameter fitting procedure with finite different gradients.

[5] = tested on: α-smooth muscle actin (αSMA) positive LL29 cells; experiment: Inhibition of fibrotic process: αSMA in TGF-β1 treated primary human fibroblasts from IPF patients; format: cell-based; conditions: Homo sapiens, Fibroblast, 96 h; Table 8; LL29 fibroblasts from IPF patients, TGF-β1 20 ng/mL, 4 days; dose-response 10 μM to 0.94 nM;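 note: controls were TGF-β1 stimulated wells with DMSO vehicle (positive) and cells given DMSO alone (negative), cultured in F12 medium with 1% fetal bovine serum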
[6] = Homo sapiens, SH-SY5Y cells, overnight (16-18 h) exposure, read-out: pSer396 Tau EC50
[7] = Homo sapiens, SH-SY5Y, read-out: pSer396 Tau EC50

SMILES	EC50 [1] [nM]	EC50 [2] [nM]	EC50 (recombinant GSK3β kinase) [nM]	EC50 [3, 6] [nM]	EC50 [4] [nM]	EC50 (IL-6) [nM]	EC50 [5] [nM]	inhibition at 10 µM [1] [%]	inhibition at 10 µM [4] [%]	EC50 [3, 7] [nM]	inhibition at 10 µM (IL-6) [%]	EC50 ([3]; control DYRK1A inhibitors, SH-SY5Y cells, read-out: EC50 in the Tau assay) [nM]
CN(C)C1CCC(C(=O)Nc2cc3cc(-c4cnn(C)c4)ccc3cn2)CC1 (stereo in doubt) [Compound 1081, trans-4-(Dimethylamino)-N-(6-(1-methyl-1H-pyrazol-4-yl)isoquinolin-3-yl)cyclohexane-1-carboxamide]	2730	2.2	82	470	4650	1100	–	–	–	–	–	–
Cn1cc(-c2ccc3cnc(NC(=O)C4CCN(S(C)(=O)=O)CC4)cc3c2)cn1 [Compound 330, N-(6-(1-Methyl-1H-pyrazol-4-yl)isoquinolin-3-yl)-1-(methylsulfonyl) piperidine-4-carboxamide]	449	–	–	246	6780	1160	20	–	–	–	–	–
CC(F)(F)CN1CCC(C(=O)Nc2cc3cc(-c4cncs4)ccc3cn2)CC1 [Compound 731, 1-(2,2-Difluoropropyl)-N-(6-(thiazol-5-yl)isoquinolin-3-yl)piperidine-4-carboxamide]	3050	1.4	42	450	1100	1180	–	–	–	–	–	–
Cn1ncc(-c2ccc3cnc(NC(=O)[C@H]4CC[C@H](CO)CC4)cc3c2)c1CN1CCCCC1 [Compound 798, trans-4-(Hydroxymethyl)-N-(6-(1-methyl-5-(piperidin-1-ylmethyl)-1H-pyrazol-4-yl)isoquinolin-3-yl)cyclohexane-1-carboxamide]	594	3.1	31	320	613	1270	–	–	–	–	–	–
Cn1ncc(-c2ccc3cnc(NC(=O)C4CCOCC4)cc3c2)c1CN1CCCCC1 [Compound 839, N-(6-(1-Methyl-5-(piperidin-1-ylmethyl)-1H-pyrazol-4-yl)isoquinolin-3-yl) tetrahydro-2H-pyran-4-carboxamide]	776	3.8	17	254	1180	3280	–	–	–	–	–	–
Cc1nnc(-c2ccc3cnc(NC(=O)[C@H]4CC[C@H](CO)CC4)cc3c2)s1 [Compound 888, trans-4-(Hydroxymethyl)-N-(6-(5-methyl-1,3,4-thiadiazol-2-yl)isoquinolin-3-yl)cyclohexane-1-carboxamide]	1040	1.4	8	195	2470	3940	–	–	–	–	–	–
Cc1nnc(-c2ccc3cnc(NC(=O)CN4CCOC[C@H]4C)cc3c2)s1 [Compound 953, (R)—N-(6-(5-Methyl-1,3,4-thiadiazol-2-yl)isoquinolin-3-yl)-2-(3-methylmorpholino)acetamide]	> 10000	16.8	23	398	> 10000	–	–	48.7	40.3	–	–	–
Cc1nnc(-c2ccc3cnc(NC(=O)CN4C5CCC4CC5)cc3c2)s1 [Compound 959, 2-(7-Azabicyclo[2.2.1]heptan-7-yl)-N-(6-(5-methyl-1,3,4-thiadiazol-2-yl)isoquinolin-3-yl)acetamide]	4240	15.4	45	–	> 10000	> 10000	–	–	45	443	6.1	–
Cc1nnc(-c2ccc3cnc(NC(=O)CN4C5CCC4COC5)cc3c2)s1 [Compound 962, 2-(3-Oxa-8-azabicyclo[3.2.1]octan-8-yl)-N-(6-(5-methyl-1,3,4-thiadiazol-2-yl)isoquinolin-3-yl)acetamide]	> 10000	23.6	57	–	> 10000	> 10000	–	45	30.9	447	9.6	–
CN1CCC(C(=O)Nc2cc3cc(-c4cnn(C)c4)c(Cl)cc3cn2)CC1 [Compound 1027, N-(7-Chloro-6-(1-methyl-1H-pyrazol-4-yl)isoquinolin-3-yl)-1-methylpiperidine-4-carboxamide]	875	50	3070	2200	488	> 10000	–	–	–	–	0	–
Cc1ncc(-c2ccc3cnc(NC(=O)CN4CCCCC4)cc3c2)o1 [Compound 1028, N-(6-(2-Methyloxazol-5-yl)isoquinolin-3-yl)-2-(piperidin-1-yl)acetamide]	3870	22.5	104	536	3520	1930	–	–	–	–	–	–
Cn1cc(-c2ccc3cnc(NC(=O)CCN4CCOCC4)cc3c2)cn1 [Compound 1034, N-(6-(1-Methyl-1H-pyrazol-4-yl)isoquinolin-3-yl)-3-morpholinopropanamide]	2040	1.9	27	430	3240	3320	–	–	–	–	–	–
Cn1cc(-c2ccc3cnc(NC(=O)[C@H]4C[C@H](N5CCOCC5)C4)cc3c2)cn1 [Compound 1035, trans-N-(6-(1-Methyl-1H-pyrazol-4-yl)isoquinolin-3-yl)-3-morpholinocyclobutane-1-carboxamide]	1370	2.6	10	129	2460	1030	–	–	–	–	–	–
CN1CCC(N(C)C(=O)Nc2cc3cc(-c4cnn(C)c4)ccc3cn2)CC1 [Compound 1037, 1-methyl-3-(6-(1-methyl-1H-pyrazol-4-yl)isoquinolin-3-yl)-1-(1-methylpiperidin-4-yl)urea]	3640	10.2	1920	> 10000	> 10000	7520	–	–	32.7	–	–	–
CNc1ncc(-c2ccc3cnc(NC(=O)C4CCNCC4)cc3c2)s1 [Compound 1040, N-(6-(2-(Methylamino)thiazol-5-yl)isoquinolin-3-yl)piperidine-4-carboxamide]	1210	4.8	98	1600	2680	1180	–	–	–	–	–	–
CNc1ncc(-c2ccc3cnc(NC(=O)C4CCN(C)CC4)cc3c2)s1 [Compound 1041, 1-Methyl-N-(6-(2-(methylamino)thiazol-5-yl)isoquinolin-3-yl)piperidine-4-carboxamide]	776	3.3	58	1300	2760	941	–	–	–	–	–	–
CCN(CC)c1ncc(-c2ccc3cnc(NC(=O)CN4CCC(F)CC4)cc3c2)s1 [Compound 1047, N-(6-(2-(Diethylamino)thiazol-5-yl)isoquinolin-3-yl)-2-(4-fluoropiperidin-1-yl)acetamide]	> 10000	463	4740	> 10000	> 10000	> 10000	–	32.6	41.7	–	4.5	–
[2H]C([2H])(C(=O)Nc1cc2cc(-c3nnc(C)s3)ccc2cn1)N1CCOCC1 [Compound 1051, N-(6-(5-Methyl-1,3,4-thiadiazol-2-yl)isoquinolin-3-yl)-2-morpholinoacetamide-2,2-d2]	480	14.6	9	147	> 10000	–	–	–	22.5	–	–	–
[2H]C1([2H])OC([2H])([2H])C([2H])([2H])N(CC(=O)Nc2cc3cc(-c4nnc(C)s4)ccc3cn2)C1([2H])[2H] [Compound 1052, N-(6-(5-Methyl-1,3,4-thiadiazol-2-yl)isoquinolin-3-yl)-2-(morpholino-d8) acetamide]	2280	18	11	254	> 10000	–	–	–	40.7	–	–	–
CN1CCN(C(=O)[C@H]2CC[C@H](C(=O)Nc3cc4cc(-c5cnn(C)c5)ccc4cn3)CC2)CC1 [Compound 1091, trans-N-(6-(1-Methyl-1H-pyrazol-4-yl)isoquinolin-3-yl)-4-(4-methylpiperazine-1-carbonyl)cyclohexane-1-carboxamide]	2950	1.4	69	869	1250	–	–	–	–	–	–	–
CC(C)CN1CCC(C(=O)Nc2cc3cc(-c4nnnn4C)ccc3cn2)CC1 [Compound 1092, 1-Isobutyl-N-(6-(1-methyl-1H-tetrazol-5-yl)isoquinolin-3-yl)piperidine-4-carboxamide]	247	62.7	132	131	2980	–	–	–	–	–	–	–
[2H]c1nc(NC(=O)CN2CCCC2)cc2cc(-c3cnn(C)c3)ccc12 [Compound 1093, N-(6-(1-Methyl-1H-pyrazol-4-yl)isoquinolin-3-yl-1-d)-2-(pyrrolidin-1-yl) acetamide]	1780	11.7	47	422	–	–	–	–	–	–	–	–
CCN1/C(=C/C(C)=O)Sc2ccc(O)cc21 [Indy, reference compound]	–	–	–	–	–	–	–	–	–	–	–	> 10000
